Test results as given in patent US7923561B2 (Hoffmann-La Roche Inc., priority 2006, dated 2011).

Tests used:
[1] = molecular target: T1, recombinant human 5-HT5A receptor (Homo sapiens, UniProt P47898); assay: [3H]LSD radioligand binding assay, membranes of HEK-EBNA cells transiently expressing 5-HT5A receptors; conditions: [3H]LSD approx. 1 nM, SPA beads, 120 min at room temperature; Ki from IC50 by Cheng-Prussoff equation
T1 construct: expressed in transfected cells; host or cells: HEK-EBNA (Human Embryonic Kidney-EBNA) cells, transient cDNA expression, membranes
Protocol: A [^3H]LSD radioligand binding assay was used to determine the affinity of the compounds for the recombinant human 5-HT5A receptor, in membranes from transiently (cDNA) expressed 5-HT5A receptors in Human Embryonic Kidney-EBNA (HEK-EBNA) cells. Assay buffer consisted of Tris (50 mM) buffer containing 1 mM EGTA, 10 mM MgCl2 (pH 7.4) and 10 μM pargyline. The binding assay was carried out in 96-well-plates in the presence of [^3H]LSD (approximately 1 nM), approximately 2 μg/well of membrane protein, and 0.5 mg of Ysi-poly-1-lysine SPA beads in a final volume of 200 μl of buffer. Non-specific binding was defined using methiothepin 2 μM. Compounds were tested at 10 concentrations. All assays were conducted in duplicate and repeated at least two times. Assay plates were incubated for 120 min at room temperature before centrifugation. Bound ligand was determined using a Packard Topcount scintillation counter. IC50 values were calculated using a non-linear curve fitting program and Ki values calculated using the Cheng-Prussoff equation.

T1 sequence (P47898 whole entry): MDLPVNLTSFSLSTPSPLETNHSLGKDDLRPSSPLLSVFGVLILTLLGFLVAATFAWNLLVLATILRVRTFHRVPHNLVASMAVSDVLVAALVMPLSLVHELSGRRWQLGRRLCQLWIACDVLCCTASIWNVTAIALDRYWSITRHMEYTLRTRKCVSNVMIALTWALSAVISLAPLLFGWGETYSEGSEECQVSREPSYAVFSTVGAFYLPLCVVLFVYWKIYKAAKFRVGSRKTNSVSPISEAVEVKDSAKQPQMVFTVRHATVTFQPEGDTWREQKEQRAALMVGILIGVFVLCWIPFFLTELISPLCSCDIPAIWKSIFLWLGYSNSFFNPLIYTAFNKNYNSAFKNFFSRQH

Compound | melting point [°C] | Ki [1] [nM]
Cc1nc(-c2cccc3nc(N[C@@H]4CCc5ccccc54)ccc23)no1 [Example 79, (R)-Indan-1-yl-[5-(5-methyl-[1,2,4]oxadiazol-3-yl)-quinolin-2-yl]-amine] | 105 | 134
Fc1ccc(CNCc2cccc3nc(N[C@@H]4CCc5ccccc54)ccc23)cc1 [Example 81, {5-[(4-Fluoro-benzylamino)-methyl]-quinolin-2-yl}-(R)-indan-1-yl-amine] | – | 151
O=C(c1ccc(F)cc1)c1cccc2nc(N[C@@H]3CCc4ccccc43)ccc12 [Example 83, (4-Fluoro-phenyl)-[2-((R)-indan-1-ylamino)-quinolin-5-yl]-methanone] | – | 11.5
N=C(c1ccccc1)c1cccc2nc(N[C@@H]3CCc4ccccc43)ccc12 [Example 84, [5-(Imino-phenyl-methyl)-quinolin-2-yl]-(R)-indan-1-yl-amine] | – | 17.1
COc1ccc(C(=O)c2cccc3nc(N[C@@H]4CCc5ccccc54)ccc23)cc1 [Example 93, [2-((R)-Indan-1-ylamino)-(4-methoxy-phenyl)-quinolin-5-yl]-methanone] | – | 15.8
COc1ccc(C(=NO)c2cccc3nc(N[C@@H]4CCc5ccccc54)ccc23)cc1 [Example 95, [2-((R)-Indan-1-ylamino)-(4-methoxy-phenyl)-quinolin-5-yl]-methanone oxime] | – | 4.11
Cc1ccc(C(=O)c2cccc3nc(N[C@@H]4CCc5ccccc54)ccc23)cc1 [Example 97, [2-((R)-Indan-1-ylamino)-(4-methyl-phenyl)-quinolin-5-yl]-methanone] | – | 37.4
CON=C(c1ccc(C)cc1)c1cccc2nc(N[C@@H]3CCc4ccccc43)ccc12 [Example 98, [2-((R)-Indan-1-ylamino)-(4-methyl-phenyl)-quinolin-5-yl]-methanone O-methyl-oxime] | – | 49.8
Cc1ccc(C(=NO)c2cccc3nc(N[C@@H]4CCc5ccccc54)ccc23)cc1 [Example 99, [2-((R)-Indan-1-ylamino)-(4-methyl-phenyl)-quinolin-5-yl]-methanone oxime] | – | 1.8
ON=C(c1cccs1)c1cccc2nc(N[C@@H]3CCc4ccccc43)ccc12 [Example 104, [2-((R)-Indan-1-ylamino)-quinolin-5-yl]-thiophen-2-yl-methanone oxime] | 194 | 3.64
ON=C(c1ccc(CN2CCOCC2)cc1)c1cccc2nc(N[C@@H]3CCc4ccccc43)ccc12 [Example 105, [2-((R)-Indan-1-ylamino)-quinolin-5-yl]-(4-morpholin-4-ylmethyl-phenyl)-methanone oxime] | 167 | 23.2

Other lines, results leading:

melting point [°C] | Ki [1] [nM] | Compound
145 | 34.4 | O=C(NCc1cccc2nc(N[C@@H]3CCc4ccccc43)ccc12)c1ccc(F)cc1 [Example 80, 4-Fluoro-N-[2-((R)-indan-1-ylamino)-quinolin-5-ylmethyl]-benzamide]
– | 7.82 | N=C(c1ccc(F)cc1)c1cccc2nc(N[C@@H]3CCc4ccccc43)ccc12 [Example 82, {5-[(4-Fluoro-phenyl)-imino-methyl]-quinolin-2-yl}-(R)-indan-1-yl-amine]
– | 24.1 | O=C(c1ccccc1)c1cccc2nc(N[C@@H]3CCc4ccccc43)ccc12 [Example 85, [2-((R)-Indan-1-ylamino)-quinolin-5-yl]-phenyl-methanone]
– | 10 | O=S(=O)(Nc1ccc(F)cc1)Nc1cccc2nc(N[C@@H]3CCc4ccccc43)ccc12 [Example 86, N-{2-[(1R)-2,3-dihydro-1H-inden-1-ylamino]quinolin-5-yl}-N′-(4-fluorophenyl)sulfamide]
– | 56.2 | Fc1cc(F)cc(CNc2cccc3nc(NC4Cc5ccccc5C4)ccc23)c1 [Example 87, N5-(3,5-Difluoro-benzyl)-N2-indan-2-yl-quinoline-2,5-diamine]
– | 44.3 | c1ccc2c(c1)CC(Nc1ccc3c(NCc4cccc5[nH]ccc45)cccc3n1)C2 [Example 88, N2-Indan-2-yl-N5-(1H-indol-4-ylmethyl)-quinoline-2,5-diamine]
184 | 2.3 | ON=C(c1ccc(F)cc1)c1cccc2nc(N[C@@H]3CCc4ccccc43)ccc12 [Example 89, (4-Fluoro-phenyl)-[2-((R)-indan-1-ylamino)-quinolin-5-yl]-methanone oxime]
175.5 | 1.55 | ON=C(c1ccccc1)c1cccc2nc(N[C@@H]3CCc4ccccc43)ccc12 [Example 91, [2-((R)-Indan-1-ylamino)-quinolin-5-yl]-phenyl-methanone oxime]
194 | 5.48 | ON=C(c1ccc(Cl)cc1)c1cccc2nc(N[C@@H]3CCc4ccccc43)ccc12 [Example 92, (4-Chloro-phenyl)-[2-((R)-indan-1-ylamino)-quinolin-5-yl]-methanone oxime]
– | 117 | O=C(c1cccc(F)c1)c1cccc2nc(N[C@@H]3CCc4ccccc43)ccc12 [Example 94, (3-Fluoro-phenyl)-[2-((R)-indan-1-ylamino)-quinolin-5-yl]-methanone]
179.5 | 1.22 | ON=C(c1cccc(F)c1)c1cccc2nc(N[C@@H]3CCc4ccccc43)ccc12 [Example 96, (3-Fluoro-phenyl)-[2-((R)-indan-1-ylamino)-quinolin-5-yl]-methanone oxime]
– | 264 | O=C(c1cc(F)cc(F)c1)c1cccc2nc(N[C@@H]3CCc4ccccc43)ccc12 [Example 100, (3,5-Difluoro-phenyl)-[2-((R)-indan-1-ylamino)-quinolin-5-yl]-methanone]
120.5 | 7.7 | ON=C(c1cc(F)cc(F)c1)c1cccc2nc(N[C@@H]3CCc4ccccc43)ccc12 [Example 101, (3,5-Difluoro-phenyl)-[2-((R)-indan-1-ylamino)-quinolin-5-yl]-methanone oxime]
176 | 33.4 | O=C(c1cccs1)c1cccc2nc(N[C@@H]3CCc4ccccc43)ccc12 [Example 102, [2-((R)-Indan-1-ylamino)-quinolin-5-yl]-thiophen-2-yl-methanone]
160 | 678 | O=C(c1ccc(CN2CCOCC2)cc1)c1cccc2nc(N[C@@H]3CCc4ccccc43)ccc12 [Example 103, [2-((R)-Indan-1-ylamino)-quinolin-5-yl]-(4-morpholin-4-ylmethyl-phenyl)-methanone]
– | 49.7 | (4-Chloro-phenyl)-[2-((R)-indan-1-ylamino)-quinolin-5-yl]-methanone [Example 90]
